Test results reported in patent publication US20260021103A1, “IKZF2 AND CK1-ALPHA DEGRADING COMPOUNDS AND USES THEREOF” (President and Fellows of Harvard College, priority 2022, published 2026).

Legend:
[1] = molecular target: T1, IKZF1 (Homo sapiens, UniProt Q13422+Q96SW2); experiment: Flow cytometry for measuring degradation, HEK293T GFP-POI reporter cells (IKZF1); type: cell-based; details: for IKZF1% degradation at 100 nM / IKZF1% degradation at 1 μM: 24 h, HEK293T GFP reporter; for Dmax: HEK-293T
T1 construct: expressed in transfected cells; host or cells: HEK293T (lentiviral transduction, puromycin selection, FACS sorting)

[2] = molecular target: T2, IKZF2 (Homo sapiens, UniProt Q96SW2+Q9UKS7); experiment: Flow cytometry for measuring degradation, HEK293T GFP-POI reporter cells (IKZF2); type: cell-based; details: for IKZF2% degradation at 100 nM / IKZF2% degradation at 1 μM: 24 h, HEK293T GFP reporter; for Dmax: HEK-293T; for Dmax / DC50: Table 3
T2 construct: expressed in transfected cells; host or cells: HEK293T (lentiviral transduction, puromycin selection, FACS sorting)

[3] = molecular target: T3, CK1α (Homo sapiens, UniProt P48729+Q96SW2); experiment: Flow cytometry for measuring degradation, HEK293T GFP-POI reporter cells (CK1α); type: cell-based; details: for CK1α % degradation at 100 nM / CK1α % degradation at 1 μM: 24 h, HEK293T GFP reporter; for Dmax: CK1, read-out: Dmax CK1a (%); for Dmax / DC50: Table 3; for DC50: read-out: DC50 CK1a
T3 construct: expressed in transfected cells; host or cells: HEK293T (lentiviral transduction, puromycin selection, FACS sorting)

[4] = system: CK1α and/or IKZF2; experiment: Panel of reporter cell lines (HEK293T cells expressing protein tagged with eGFP), substrate scope; type: cell-based; details: 100 nM or 1 μM
[5] = molecular target: GSPT1 (Homo sapiens, UniProt P15170+Q96SW2); experiment: Flow cytometry for measuring degradation, HEK293T GFP-POI reporter cells (GSPT1); type: cell-based; set-up: expressed in transfected cells; host or cells: HEK293T; details: for GSPT1% degradation at 100 nM / GSPT1% degradation at 1 μM: 24 h, HEK293T GFP reporter; for Dmax: HEK-293T
[6] = In vitro solubility in DMSO; type: physicochemical; details: DMSO, organic solvent or mixture

T3 sequence (P48729 whole entry): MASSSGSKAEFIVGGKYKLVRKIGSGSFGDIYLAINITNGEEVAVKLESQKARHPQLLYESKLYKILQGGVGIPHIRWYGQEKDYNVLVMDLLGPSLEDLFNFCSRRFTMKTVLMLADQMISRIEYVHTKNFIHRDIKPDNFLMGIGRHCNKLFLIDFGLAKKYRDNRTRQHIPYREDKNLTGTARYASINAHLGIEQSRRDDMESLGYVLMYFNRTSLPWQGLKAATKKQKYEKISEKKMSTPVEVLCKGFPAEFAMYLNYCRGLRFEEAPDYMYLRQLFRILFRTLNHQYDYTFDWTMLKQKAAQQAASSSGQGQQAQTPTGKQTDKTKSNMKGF
T3 sequence (Q96SW2 whole entry): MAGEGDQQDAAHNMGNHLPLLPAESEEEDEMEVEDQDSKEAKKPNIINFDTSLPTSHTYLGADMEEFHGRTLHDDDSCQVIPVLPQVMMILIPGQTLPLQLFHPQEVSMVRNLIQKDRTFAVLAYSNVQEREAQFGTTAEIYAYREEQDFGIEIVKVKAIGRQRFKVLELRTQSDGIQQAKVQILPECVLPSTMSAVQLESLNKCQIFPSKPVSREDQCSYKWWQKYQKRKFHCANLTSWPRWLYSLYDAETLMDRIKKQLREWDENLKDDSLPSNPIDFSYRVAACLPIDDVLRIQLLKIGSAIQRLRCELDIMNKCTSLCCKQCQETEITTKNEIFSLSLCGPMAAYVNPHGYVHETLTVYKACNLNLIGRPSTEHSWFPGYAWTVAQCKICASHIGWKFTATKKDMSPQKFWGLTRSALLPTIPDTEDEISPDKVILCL
T3 sequence (Q16531 whole entry partner): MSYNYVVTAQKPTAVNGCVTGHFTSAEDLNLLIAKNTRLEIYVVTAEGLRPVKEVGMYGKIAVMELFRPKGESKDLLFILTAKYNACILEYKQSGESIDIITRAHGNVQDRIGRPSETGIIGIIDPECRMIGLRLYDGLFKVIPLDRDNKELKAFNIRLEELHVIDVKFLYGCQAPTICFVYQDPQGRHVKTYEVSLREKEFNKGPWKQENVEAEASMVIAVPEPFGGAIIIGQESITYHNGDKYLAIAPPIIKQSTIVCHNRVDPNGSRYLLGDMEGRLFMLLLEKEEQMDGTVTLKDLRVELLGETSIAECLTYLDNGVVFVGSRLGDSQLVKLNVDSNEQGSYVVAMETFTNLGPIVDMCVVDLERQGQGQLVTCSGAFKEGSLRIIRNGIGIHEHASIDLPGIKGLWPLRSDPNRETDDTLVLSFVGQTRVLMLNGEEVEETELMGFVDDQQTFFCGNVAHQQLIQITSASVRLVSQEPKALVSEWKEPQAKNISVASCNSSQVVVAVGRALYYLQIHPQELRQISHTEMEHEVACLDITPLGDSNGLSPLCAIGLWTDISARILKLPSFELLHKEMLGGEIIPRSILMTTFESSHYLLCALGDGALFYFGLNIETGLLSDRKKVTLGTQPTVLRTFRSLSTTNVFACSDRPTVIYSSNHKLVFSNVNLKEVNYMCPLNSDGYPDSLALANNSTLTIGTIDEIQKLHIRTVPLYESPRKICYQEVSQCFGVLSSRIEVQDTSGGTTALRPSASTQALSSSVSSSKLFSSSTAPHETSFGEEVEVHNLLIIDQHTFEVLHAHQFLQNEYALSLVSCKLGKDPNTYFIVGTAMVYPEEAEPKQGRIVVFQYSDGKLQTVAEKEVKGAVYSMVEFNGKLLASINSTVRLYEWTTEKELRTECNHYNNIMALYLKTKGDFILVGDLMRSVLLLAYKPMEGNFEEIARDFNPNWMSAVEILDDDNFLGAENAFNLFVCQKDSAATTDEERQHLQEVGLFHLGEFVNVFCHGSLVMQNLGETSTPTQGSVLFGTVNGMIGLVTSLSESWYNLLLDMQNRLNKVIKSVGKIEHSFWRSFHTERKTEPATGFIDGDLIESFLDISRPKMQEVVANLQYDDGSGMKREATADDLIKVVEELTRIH
Chain of GSPT1 (P15170 whole entry): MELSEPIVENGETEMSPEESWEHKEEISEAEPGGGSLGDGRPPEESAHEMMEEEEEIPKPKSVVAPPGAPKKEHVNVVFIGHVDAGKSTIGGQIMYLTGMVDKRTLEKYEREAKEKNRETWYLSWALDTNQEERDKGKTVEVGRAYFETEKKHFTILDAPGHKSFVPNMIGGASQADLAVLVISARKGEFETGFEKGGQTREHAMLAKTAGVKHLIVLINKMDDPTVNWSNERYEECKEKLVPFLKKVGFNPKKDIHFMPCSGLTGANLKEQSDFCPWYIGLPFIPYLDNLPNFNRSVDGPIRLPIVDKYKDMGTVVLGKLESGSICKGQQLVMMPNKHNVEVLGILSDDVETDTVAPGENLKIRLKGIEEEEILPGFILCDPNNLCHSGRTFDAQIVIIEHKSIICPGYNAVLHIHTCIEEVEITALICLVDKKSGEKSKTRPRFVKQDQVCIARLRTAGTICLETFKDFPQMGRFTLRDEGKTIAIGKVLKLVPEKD
Chain of GSPT1 (Q96SW2 whole entry): as the sequence (Q96SW2 whole entry) above
Chain of GSPT1 (Q16531 whole entry partner): as the sequence (Q16531 whole entry partner) above
T1 sequence (Q13422 whole entry): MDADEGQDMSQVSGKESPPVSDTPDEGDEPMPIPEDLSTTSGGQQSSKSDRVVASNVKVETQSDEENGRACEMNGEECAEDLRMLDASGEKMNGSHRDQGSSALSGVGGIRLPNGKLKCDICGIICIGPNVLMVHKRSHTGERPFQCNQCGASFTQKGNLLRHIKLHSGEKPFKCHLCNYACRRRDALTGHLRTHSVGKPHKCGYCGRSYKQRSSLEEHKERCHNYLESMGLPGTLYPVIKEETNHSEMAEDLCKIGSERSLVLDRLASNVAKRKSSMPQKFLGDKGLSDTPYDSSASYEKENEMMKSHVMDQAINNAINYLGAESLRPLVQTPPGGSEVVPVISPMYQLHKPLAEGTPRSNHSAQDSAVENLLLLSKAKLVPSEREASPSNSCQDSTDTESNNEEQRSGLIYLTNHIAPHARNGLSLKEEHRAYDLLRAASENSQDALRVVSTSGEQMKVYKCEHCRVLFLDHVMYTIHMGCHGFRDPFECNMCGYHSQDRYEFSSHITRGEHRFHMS
T1 sequence (Q96SW2 whole entry): as the sequence (Q96SW2 whole entry) above
T1 sequence (Q16531 whole entry partner): as the sequence (Q16531 whole entry partner) above
T2 sequence (Q9UKS7 whole entry): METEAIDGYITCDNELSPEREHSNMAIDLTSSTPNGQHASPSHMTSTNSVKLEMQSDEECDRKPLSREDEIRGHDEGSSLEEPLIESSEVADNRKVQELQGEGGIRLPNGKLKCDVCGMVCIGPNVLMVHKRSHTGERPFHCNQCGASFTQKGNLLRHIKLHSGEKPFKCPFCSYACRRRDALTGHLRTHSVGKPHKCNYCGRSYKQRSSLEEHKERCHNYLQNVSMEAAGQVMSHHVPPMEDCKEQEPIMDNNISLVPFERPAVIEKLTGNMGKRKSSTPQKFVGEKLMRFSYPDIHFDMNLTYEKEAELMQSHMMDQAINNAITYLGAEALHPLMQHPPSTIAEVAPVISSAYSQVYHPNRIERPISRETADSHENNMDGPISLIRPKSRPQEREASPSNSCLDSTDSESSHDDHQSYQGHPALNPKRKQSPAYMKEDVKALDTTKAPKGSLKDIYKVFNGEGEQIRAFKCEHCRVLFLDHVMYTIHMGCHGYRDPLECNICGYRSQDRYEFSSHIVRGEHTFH
T2 sequence (Q96SW2 whole entry): as the sequence (Q96SW2 whole entry) above
T2 sequence (Q16531 whole entry partner): as the sequence (Q16531 whole entry partner) above

IKZF1% degradation at 100 nM [1] [%]	IKZF1% degradation at 1 μM [1] [%]	IKZF2% degradation at 100 nM [2] [%]	IKZF2% degradation at 1 μM [2] [%]	CK1α % degradation at 100 nM [3] [%]	CK1α % degradation at 1 μM [3] [%]	GSPT1% degradation at 100 nM [5] [%]	GSPT1% degradation at 1 μM [5] [%]	Dmax ([1]; Table 3) [%]	Dmax [2] [%]	DC50 [2] [nM]	Dmax [3] [%]	DC50 [3] [nM]	solubility [6] [mM]	Dmax ([5]; Table 3) [%]	DC50 ([5]; Table 3) [nM]	DC50 ([1]; Table 3) [nM]	SMILES	degradation activity for CK1α and/or IKZF2, while sparing IKZF1 and/or GSPT1 (in words) [4]
15.2 ± 0.2	29.2 ± 0.5	83.9 ± 0.4	93.8 ± 0.1	68.4 ± 0.2	72.8 ± 0.1	10.5 ± 1.7	12.2 ± 1.9	–	–	–	–	–	–	–	–	–	O=C1CCC(N2Cc3cc(NC(=O)C4=Cc5ccccc5OC4)ccc3C2=O)C(=O)N1 (centres unmarked) [DEG-52, N-(2-(2,6-dioxopiperidin-3-yl)-1-oxoisoindolin-5-yl)-2H-chromene-3-carboxamide]	good degradation activity
13.4 ± 0.6	26.5 ± 1.2	79.7 ± 0.1	92 ± 0.1	61.7 ± 2.4	63.3 ± 3.9	2 ± 3.6	−1 ± 3.4	–	–	–	–	–	–	–	–	–	O=C1CCC(N2Cc3cc(NC(=O)c4cc5ccccc5o4)ccc3C2=O)C(=O)N1 (centres unmarked) [DEG-59, N-(2-(2,6-dioxopiperidin-3-yl)-1-oxoisoindolin-5-yl)benzofuran-2-carboxamide]	good degradation activity
7.7	9.1	86.7	94.1	76.5	80.1	16.3	24.8	17.2	95.4	10.4	78.9	2.8	> 100	33.5	1190	–	CSc1ccc2cc(C(=O)Nc3ccc4c(c3)CN(C3CCC(=O)NC3=O)C4=O)ccc2c1 (centres unmarked) [DEG-95, N-(2-(2,6-dioxopiperidin-3-yl)-1-oxoisoindolin-5-yl)-6-(methylthio)-2-naphthamide]	–
2.4	4.1	52.6	87.1	60.1	74.1	1.6	−3.4	13.1	95.9	83.1	78	32	> 100	5.6	–	–	CN1C(=O)CCc2cc(C(=O)Nc3ccc4c(c3)CN(C3CCC(=O)NC3=O)C4=O)ccc21 (centres unmarked) [DEG-97, N-(2-(2,6-dioxopiperidin-3-yl)-1-oxoisoindolin-5-yl)-1-methyl-2-oxo-1,2,3,4-tetrahydroquinoline-6-carboxamide]	–

More lines, now with the values behind:

SMILES	IKZF1% degradation at 100 nM [1] [%]	IKZF1% degradation at 1 μM [1] [%]	IKZF2% degradation at 100 nM [2] [%]	IKZF2% degradation at 1 μM [2] [%]	CK1α % degradation at 100 nM [3] [%]	CK1α % degradation at 1 μM [3] [%]	GSPT1% degradation at 100 nM [5] [%]	GSPT1% degradation at 1 μM [5] [%]	Dmax ([1]; Table 3) [%]	Dmax [2] [%]	DC50 [2] [nM]	Dmax [3] [%]	DC50 [3] [nM]	solubility [6] [mM]	Dmax ([5]; Table 3) [%]	DC50 ([5]; Table 3) [nM]	DC50 ([1]; Table 3) [nM]	degradation activity for CK1α and/or IKZF2, while sparing IKZF1 and/or GSPT1 (in words) [4]
O=C1CCC(N2Cc3cc(NC(=O)c4cccc(Oc5ccccc5)c4)ccc3C2=O)C(=O)N1 (centres unmarked) [DEG-55, N-(2-(2,6-dioxopiperidin-3-yl)-1-oxoisindolin-5-yl)-3-phenoxybenzamide]	62.1 ± 0.2	86.8 ± 0.4	73.9 ± 0.4	91.1 ± 0.1	57.6 ± 1.7	67.4 ± 1.4	8.8 ± 0.8	14 ± 1.8	–	–	–	–	–	–	–	–	–	good degradation activity
O=C(/C=C/c1ccccc1)Nc1ccc2c(c1)CN(C1CCC(=O)NC1=O)C2=O (centres unmarked) [DEG-56, N-(2-(2,6-dioxopiperidin-3-yl)-1-oxoisoindolin-5-yl)cinnamamide]	13.1 ± 0.8	29.4 ± 0.3	70.8 ± 0.3	89.6 ± 0.1	60.2 ± 2.3	67 ± 1.1	7.6 ± 1.5	11.1 ± 1.3	–	–	–	–	–	–	–	–	–	good degradation activity
O=C1CCC(N2Cc3cc(NC(=O)c4ccc(Oc5ccccc5)cc4)ccc3C2=O)C(=O)N1 (centres unmarked) [DEG-61, N-(2-(2,6-dioxopiperidin-3-yl)-1-oxoisoindolin-5-yl)-4-phenoxybenzamide]	5.2 ± 1	9.6 ± 0.5	78.4 ± 0.8	91.4 ± 0.1	60.9 ± 0.7	65.8 ± 1.2	10.2 ± 2.8	16.9 ± 2.3	–	–	–	–	–	–	–	–	–	good degradation activity
O=C1CCC(N2Cc3cc(NC(=O)Cc4cccc5ccccc45)ccc3C2=O)C(=O)N1 (centres unmarked) [DEG-67, N-(2-(2,6-dioxopiperidin-3-yl)-1-oxoisoindolin-5-yl)-2-(naphthalen-1-yl)acetamide]	97.2 ± 0.1	98.1 ± 0.1	92.2 ± 0.1	94.6 ± 0	64.4 ± 0.5	62.8 ± 0.5	25.3 ± 0.5	30.9 ± 1	–	–	–	–	–	–	–	–	–	good degradation activity
CC(=O)N1CCC[C@H]1C(=O)Nc1ccc2c(c1)CN(C1CCC(=O)NC1=O)C2=O (stereo partly drawn) [DEG-96, (2S)-1-acetyl-N-(2-(2,6-dioxopiperidin-3-yl)-1-oxoisoindolin-5-yl)pyrrolidine-2-carboxamide]	3.6	5.0	21.4	57.0	9.2	26.3	8.6	10.1	8.3	79.5	340	40.3	503	> 100	14.2	–	–	–
C[C@H](NC(=O)c1ccccc1)C(=O)Nc1ccc2c(c1)CN(C1CCC(=O)NC1=O)C2=O (stereo partly drawn) [DEG-98, N-((2S)-1-((2-(2,6-dioxopiperidin-3-yl)-1-oxoisoindolin-5-yl)amino)-1-oxopropan-2-yl)benzamide]	50.9	79.7	35.8	68.1	18.2	41.2	5.5	6.2	88	80.5	143	54.1	175	> 100	0	–	72	–
